Experimental data published in patent publication US20010020007A1, “Vitamin preparations for reducing oxygen consumption during physical efforts” (priority 1996, published 2001).
Where “and” joins values, the source holds several entries; their conditions need not be identical. Identical values can stand only once.

Experiments:
individual B = test: Ergometer study c): Preparations I-IV with sulphonylureas and/or glucocorticoids, 5 minutes before test (Example 39); type: in vivo, human; settings: 125 W for 45 min, ingested 5 min before test, chlorpropamide 20 mg, glibornuride 1 mg, glibenclamide 100 μg, dexamethasone 20 μg, prednisolone 200 μg, Prep. one dose unit
Method: (§1) Analogously to Example 37, the following studies a) to c) were carried out on two male individuals, trained for endurance cycling and kept on a permanently carbohydrate-rich diet; individual A (weighing 67 kg) having a maximum oxygen uptake capacity of 3.3 l and an oxygen transport volume per heart beat of 29 ml (corresponding to 0.6 kJ), and individual B (weighing 74 kg) having a maximum oxygen uptake capacity of 4.5 l and an oxygen transport volume per heart beat of 36 ml (corresponding to 0.75 kJ) . The following preparations were used, in which the indicated amounts correspond to one dose unit and which were obtained by dissolving or suspending the components in water and gelling the mixture:
(§2) Prep. I: 10 mg of D-glucose, 1 mg of thiamine and 10 mg of ascorbic acid heated with 5 mg of agar-agar in 1 ml of water;
(§3) Prep. II: 25 mg of ethanol, 1 mg of thiamine and 50 μg of biotin heated with 5 mg of agar-agar in 1 ml of water;
Prep. III: 25 mg of ethanol, 250 μg of folic acid and 5 μg of cyanocobalamin heated with 5 mg of gelatin in 1 ml of water;
Prep. IV: 10 mg of H-Gly-Gly-OH, 300 μg of folic acid and 5 μg of cyanocobalamin heated 5 mg of gelatin in 1 ml of water.
(§4) H-Gly-Gly-OH was bought from Novabiochem, Läufelfingen, Switzerland. Insulin was injected subcutaneously, while the other medicaments were ingested alone or together with one of Preparations I-IV.
c) In a further test series, the effect of Preparations I-IV was tested when applied in combination with sulphonylurea derivatives and/or glucocorticoids immediately before the physical exercise. In these tests, individual B was subjected to a workload of 125 W (60 r.p.m.) for 45 minutes; the drugs and Preparations were ingested 5 minutes before the test.

[1] = Stimulation of glycogen synthesis and anaerobic glucose breakdown in the muscle by other sugars (description); type: in vivo; settings: even if taken together with vitamin B1 and vitamin C
Source text: D-Maltose can replace the D-glucose in the preparation according to the invention and is even active in considerably lower amounts. […] The conversion of the sucrose or fructose to glucose, however, only takes place in the liver if they have been absorbed from the small intestine.

[2] = test system: male individuals A and B, trained for endurance cycling; test: Ergometer study b): sulphonylureas, glucocorticoids, Preparation I and combinations, evening before test (Example 39); type: in vivo, human; settings: individual A, 100 W for 25 min, before sleep, glibenclamide 2.5 mg, glibornuride 25 mg
Method: as §1, §2, §4
b) In a second study, antidiabetic sulphonyl urea derivatives, glucocorticoids, Preparation I and combinations thereof were administered before sleep, the evening before the tests. In the tests, individual A was subjected to a workload of 100 W (60 r.p.m.) for 25 minutes (tests A1-A9), and individual B was subjected to a workload of 175 W (60 r.p.m.) for 45 minutes (tests B10-B33).

[3] = test system: male individuals A and B, trained for endurance cycling; test: Ergometer study a): insulin or sulphonylureas alone or with gelatin and/or Preparation I or II, 15 minutes before test (Example 39); type: in vivo, human
Method: as §1, §2, §3, §4
a) In a first study, insulin or antidiabetic sulphonylurea derivatives were applied, alone or in combination with gelatin and/or Preparation I or II, 15 minutes before the tests. In the tests, individual A was subjected to a workload of 100 W (60 r.p.m.) for 15 minutes (tests A1-A8), and individual B was subjected to a workload of 175 W (60 r.p.m.) for 10 minutes (tests B9-B29).

[4] = individual A, 100 W for 15 min, 2.5 mg glibenclamide 15 min before test
[5] = individual B, 175 W for 10 min, 15 min before test, 5 I.U. insulin s.c., glibenclamide 2.5 mg alone or 100 μg with gelatin, chlorpropamide 10 mg, gelatin 5 mg, Prep. one dose unit

Row | Compound | Heat production (individual B) [kJ] | Mean heart rate (individual B) [per min.] | Oxygen consumption (individual B) [L] | Stimulation of glycogen synthesis and of the anaerobic glucose breakdown in the muscle [1] | Heat production [2] | Mean heart rate [2] | Oxygen consumption [2] | Heat production [3, 5] | Mean heart rate [3, 5] | Oxygen consumption [3, 5] | other results
1 | CCCNC(=O)NS(=O)(=O)c1ccc(Cl)cc1 [chlorpropamide] | 2717 | 132.5 | 130 |  |  |  |  |  |  |  | 
2 | O=C(CO)[C@@H](O)[C@H](O)[C@H](O)CO [fructose] |  |  |  | ineffective |  |  |  |  |  |  | 
3 | COc1ccc(Cl)cc1C(=O)NCCc1ccc(S(=O)(=O)NC(=O)NC2CCCCC2)cc1 [glibenclamide] | 2727 | 132.6 | 131 |  | 622 kJ and 613 kJ and 531 kJ | 101.5 per min. and 100.9 per min. and 95.4 per min. | 30 liter (2×) and 26 liter | 724 kJ and 698 kJ | 147.5 per min. and 145.1 per min. | 34 L | Heat production [3, 4]: 687 kJ and 700 kJ and 679 kJ; Mean heart rate [3, 4]: 136.4 per min. and 137.8 per min. and 135.4 per min.; Oxygen consumption [3, 4]: 33 liter (2×) and 34 liter
4 | Cc1ccc(S(=O)(=O)NC(=O)N[C@H]2[C@H]3CC[C@@](C)([C@H]2O)C3(C)C)cc1 [glibornuride] | 2706 | 132.2 | 130 |  | 600 kJ | 100.0 per min. | 29 L |  |  |  | 
5 | OC[C@H]1O[C@@](CO)(O[C@H]2O[C@H](CO)[C@@H](O)[C@H](O)[C@H]2O)[C@@H](O)[C@@H]1O [sucrose] |  |  |  | ineffective |  |  |  |  |  |  | 
6 | insulin |  |  |  |  |  |  |  | 675 kJ and 696 kJ (2×) | 142.0 per min. and 144.8 per min. (2×) | 32 liter and 33 liter (2×) | Effect on heat production and oxygen consumption induced by constant physical work loads ([3]; applied 15 minutes before the test): increase
